This assay has as its system cytotoxicity counter-screen, cell viability, 2% serum. The assay can be described thus: viability loss in CXCR4-tropic fusion assay cells – cell-based, 2% serum, set 2, cytotoxicity control for HIV-1 antiviral lead project, dose response (AID 504574).
As to `Cc1c2c(=O)n(-c3nc4ccccc4s3)nc-2cc(O)n1Cc1ccc(F)cc1`, the CC50 is 4.88 µM.
The value for `Cc1c2c(=O)n(-c3nc4ccccc4s3)nc-2cc(O)n1C1CC1` was 3.82 µM.
The value for `COc1ccccc1Cn1c(O)cc2nn(-c3nc4ccccc4s3)c(=O)c-2c1C` was 15.1 µM.
With `Cc1c2c(=O)n(-c3nc4ccccc4s3)nc-2cc(O)n1Cc1ccccc1Cl`, the CC50 is 6.06 µM.
For the compound `Cc1c2c(=O)n(-c3nc4ccccc4s3)nc-2cc(O)n1Cc1cccs1`, the 50% cytotoxic concentration (CC50) was 5.51 µM.
The figure for `COc1ccc(Cn2c(O)cc3nn(-c4nc5ccccc5s4)c(=O)c-3c2C)cc1` is 5.52 µM; for `Cc1c2c(=O)n(-c3nc4ccccc4s3)nc-2cc(O)n1CCc1ccc(O)cc1` it is 3.34 µM; for `Cc1c2c(=O)n(-c3nc4ccccc4s3)nc-2cc(O)n1CCc1cccs1` it is 16 µM.
The figure for `Cc1c2c(=O)n(-c3nc4ccccc4s3)nc-2cc(O)n1Cc1cccnc1` is 7.86 µM; for `Cc1c2c(=O)n(-c3nc4ccccc4s3)nc-2cc(O)n1CCC(C)C` it is 18.6 µM.
As for `Cc1c2c(=O)n(-c3nc4ccccc4s3)nc-2cc(O)n1Cc1ccncc1`, the CC50 was 9.26 µM.
Turning to `Cc1c2c(=O)n(-c3nc4ccccc4s3)nc-2cc(O)n1Cc1ccccc1`, the CC50 was 8.94 µM.
Turning to `COc1ccc(CCn2c(O)cc3nn(-c4nc5ccccc5s4)c(=O)c-3c2C)cc1`, the CC50 is 23.4 µM.

By CC50 is commonly meant the concentration at which the toxic effect on the cells reaches its halfway point.

The values are drawn from PubChem BioAssay AID504574 (Southern Research Specialized Biocontainment Screening …, 2011).
